In patent publication US6960574B2, “Antagonists of RF-amide neuropeptides” (University of Florida, priority 2002, dated 2005):
Peptide text beside a SMILES is read from it. * marks the point of attachment. Dansyl = CN(C)c1cccc2c(S(=O)(=O)*)cccc12

System: receptor labeled by the radioiodinated analogue of 1 (4, [125I]-YLFQPQRF-NH2); neuropeptide FF receptor
Experiment: Competitive radioligand binding against 4 ([125I]Y8F-amide)
Conditions: mixture-based positional scanning; difference from averaged radioligand displacement of whole library (0); about 80 a.u. = 10-fold change in Ki
Source text: Additionally, three-dimensional (3-D) molecular models of the known smaller-size neuropeptide FF antagonists 3 and 3a were constructed and their low-energy conformations were obtained in the AMBER force-field [Weiner, et al., J. Comput. Chem. 1986, 7, […].] by molecular dynamics calculations involving simulated annealing. A semi-empirical quantum chemical method with the PM3 parameterization [Stewart, J. Comput. Chem. 1989, 10, 209-220.] was used for the final geometry optimization. […] At least one of the rings in domain B is aromatic. No similarity between 3 and 3a outside these domains were apparent; therefore, the simultaneous presence of A and B domains in the structure of neuropeptide FF (1) antagonists is critical to the invention. Apparently, structural subunits (domain C) outside domains A and B should function in a cooperative manner in directing the pharmacophores into proper geometric positions when improved binding to the cognate receptor is to be obtained, which is associated with the improvement of the desired pharmacological effect. An approach involving mixture-based synthetic combinatorial libraries and positional scanning [(a) Houghten, et al., J. Med Chem. 1999, 42, 3743-3778.] was adopted in the search for preferred structural motifs in domain C that assist in achieving this objective in this invention. To allow for the use of 3 as a reference in this process, the guadinino group (A) was incorporated as part of an L-2-amino-5-{[amino(imino)methyl]amino}pentanoyl (arginyl, R, Arg) residue and 5-dimethylamino-1-naphthalenesulphonyl (dansyl) was chosen to form B (However, it must be emphasized that both R and dansyl are replaceable with moieties that bestow A and B domain attributes described in the invention).
Upon screening for residues to replace the glutamine of 3, serine (S) was the only building block in this position that increased the displacement of 4 in the radioligand-binding assay. Therefore, motifs present in dansyl-Gly-Ser-Arg-NH2, dansyl-Gly-Gln-Arg-NH2, dansyl-Gln-Ser-Arg-NH2, and dansyl-Gln-Gln-Arg-NH2 were chosen based on their affinity to the cognate receptor for further consideration as primary templates when designing the domain C of the compounds described in the invention herein. […]

Row | Relative Binding Index (RBI) [a.u.] | Structure (SMILES)
1 | 23 | CN(C)c1cccc2c(S(=O)(=O)N[C@@H](Cc3ccccc3)C(=O)N[C@@H](CCC(N)=O)C(=O)N[C@@H](CCCNC(=N)N)C(N)=O)cccc12 [Dansyl-FQR-amide] (Dansyl-Phe-Gln-Arg-NH2)
2 | 8 | CN(C)c1cccc2c(S(=O)(=O)N[C@@H](Cc3ccccc3)C(=O)N[C@@H](CCCNC(=N)N)C(=O)N[C@@H](CCCNC(=N)N)C(N)=O)cccc12 [Dansyl-FRR-amide] (Dansyl-Phe-Arg-Arg-NH2)
3 | 30 | CN(C)c1cccc2c(S(=O)(=O)N[C@@H](Cc3ccccc3)C(=O)N[C@@H](CO)C(=O)N[C@@H](CCCNC(=N)N)C(N)=O)cccc12 [Dansyl-FSR-amide] (Dansyl-Phe-Ser-Arg-NH2)
4 | 15 | C[C@@H](O)[C@H](NC(=O)[C@H](Cc1ccccc1)NS(=O)(=O)c1cccc2c(N(C)C)cccc12)C(=O)N[C@@H](CCCNC(=N)N)C(N)=O [Dansyl-FTR-amide] (Dansyl-Phe-Thr-Arg-NH2)
5 | 5 | CC(C)[C@H](NC(=O)[C@H](Cc1ccccc1)NS(=O)(=O)c1cccc2c(N(C)C)cccc12)C(=O)N[C@@H](CCCNC(=N)N)C(N)=O [Dansyl-FVR-amide] (Dansyl-Phe-Val-Arg-NH2)
6 | 18 | CN(C)c1cccc2c(S(=O)(=O)N[C@@H](Cc3ccccc3)C(=O)N[C@@H](Cc3c[nH]c4ccccc34)C(=O)N[C@@H](CCCNC(=N)N)C(N)=O)cccc12 [Dansyl-FWR-amide] (Dansyl-Phe-Trp-Arg-NH2)
7 | 8 | CN(C)c1cccc2c(S(=O)(=O)N[C@@H](Cc3ccccc3)C(=O)N[C@@H](Cc3ccc(O)cc3)C(=O)N[C@@H](CCCNC(=N)N)C(N)=O)cccc12 [Dansyl-FYR-amide] (Dansyl-Phe-Tyr-Arg-NH2)
8 | −24 | C[C@H](NC(=O)CNS(=O)(=O)c1cccc2c(N(C)C)cccc12)C(=O)N[C@@H](CCCNC(=N)N)C(N)=O [Dansyl-GAR-amide] (Dansyl-Gly-Ala-Arg-NH2)
9 | 7 | CN(C)c1cccc2c(S(=O)(=O)NCC(=O)N[C@@H](CC(=O)O)C(=O)N[C@@H](CCCNC(=N)N)C(N)=O)cccc12 [Dansyl-GDR-amide] (Dansyl-Gly-Asp-Arg-NH2)
10 | 25 | CN(C)c1cccc2c(S(=O)(=O)NCC(=O)N[C@@H](CCC(=O)O)C(=O)N[C@@H](CCCNC(=N)N)C(N)=O)cccc12 [Dansyl-GER-amide] (Dansyl-Gly-Glu-Arg-NH2)
11 | 24 | CN(C)c1cccc2c(S(=O)(=O)NCC(=O)N[C@@H](Cc3ccccc3)C(=O)N[C@@H](CCCNC(=N)N)C(N)=O)cccc12 [Dansyl-GFR-amide] (Dansyl-Gly-Phe-Arg-NH2)
12 | 30 | CN(C)c1cccc2c(S(=O)(=O)NCC(=O)NCC(=O)N[C@@H](CCCNC(=N)N)C(N)=O)cccc12 [Dansyl-GGR-amide]
13 | 19 | CN(C)c1cccc2c(S(=O)(=O)NCC(=O)N[C@@H](Cc3c[nH]cn3)C(=O)N[C@@H](CCCNC(=N)N)C(N)=O)cccc12 [Dansyl-GHR-amide] (Dansyl-Gly-His-Arg-NH2)
14 | 32 | CC[C@H](C)[C@H](NC(=O)CNS(=O)(=O)c1cccc2c(N(C)C)cccc12)C(=O)N[C@@H](CCCNC(=N)N)C(N)=O [Dansyl-GIR-amide] (Dansyl-Gly-Ile-Arg-NH2)
15 | 23 | CN(C)c1cccc2c(S(=O)(=O)NCC(=O)N[C@@H](CCCCN)C(=O)N[C@@H](CCCNC(=N)N)C(N)=O)cccc12 [Dansyl-GKR-amide] (Dansyl-Gly-Lys-Arg-NH2)
16 | 17 | CC(C)C[C@H](NC(=O)CNS(=O)(=O)c1cccc2c(N(C)C)cccc12)C(=O)N[C@@H](CCCNC(=N)N)C(N)=O [Dansyl-GLR-amide] (Dansyl-Gly-Leu-Arg-NH2)
17 | 25 | CSCC[C@H](NC(=O)CNS(=O)(=O)c1cccc2c(N(C)C)cccc12)C(=O)N[C@@H](CCCNC(=N)N)C(N)=O [Dansyl-GMR-amide] (Dansyl-Gly-Met-Arg-NH2)
18 | 26 | CN(C)c1cccc2c(S(=O)(=O)NCC(=O)N[C@@H](CC(N)=O)C(=O)N[C@@H](CCCNC(=N)N)C(N)=O)cccc12 [Dansyl-GNR-amide] (Dansyl-Gly-Asn-Arg-NH2)

Row | Relative Binding Index (RBI) [a.u.] | Structure (SMILES)
19 | 28 | CN(C)c1cccc2c(S(=O)(=O)NCC(=O)N3CCC[C@H]3C(=O)N[C@@H](CCCNC(=N)N)C(N)=O)cccc12 [Dansyl-GPR-amide] (Dansyl-Gly-Pro-Arg-NH2)
20 | 39 | CN(C)c1cccc2c(S(=O)(=O)NCC(=O)N[C@@H](CCC(N)=O)C(=O)N[C@@H](CCCNC(=N)N)C(N)=O)cccc12 [Dansyl-GQR-amide, dansyl-Gly-Gln-Arg-NH2] (Dansyl-Gly-Gln-Arg-NH2)
21 | 24 | CN(C)c1cccc2c(S(=O)(=O)NCC(=O)N[C@@H](CCCNC(=N)N)C(=O)N[C@@H](CCCNC(=N)N)C(N)=O)cccc12 [Dansyl-GRR-amide]
22 | 31 | C[C@@H](O)[C@H](NC(=O)CNS(=O)(=O)c1cccc2c(N(C)C)cccc12)C(=O)N[C@@H](CCCNC(=N)N)C(N)=O [Dansyl-GTR-amide] (Dansyl-Gly-Thr-Arg-NH2)
23 | 20 | CC(C)[C@H](NC(=O)CNS(=O)(=O)c1cccc2c(N(C)C)cccc12)C(=O)N[C@@H](CCCNC(=N)N)C(N)=O [Dansyl-GVR-amide] (Dansyl-Gly-Val-Arg-NH2)
24 | 34 | CN(C)c1cccc2c(S(=O)(=O)NCC(=O)N[C@@H](Cc3c[nH]c4ccccc34)C(=O)N[C@@H](CCCNC(=N)N)C(N)=O)cccc12 [Dansyl-GWR-amide] (Dansyl-Gly-Trp-Arg-NH2)
25 | 24 | CN(C)c1cccc2c(S(=O)(=O)NCC(=O)N[C@@H](Cc3ccc(O)cc3)C(=O)N[C@@H](CCCNC(=N)N)C(N)=O)cccc12 [Dansyl-GYR-amide] (Dansyl-Gly-Tyr-Arg-NH2)
26 | −32 | C[C@H](NC(=O)[C@H](Cc1c[nH]cn1)NS(=O)(=O)c1cccc2c(N(C)C)cccc12)C(=O)N[C@@H](CCCNC(=N)N)C(N)=O [Dansyl-HAR-amide] (Dansyl-His-Ala-Arg-NH2)
27 | −1 | CN(C)c1cccc2c(S(=O)(=O)N[C@@H](Cc3c[nH]cn3)C(=O)N[C@@H](CC(=O)O)C(=O)N[C@@H](CCCNC(=N)N)C(N)=O)cccc12 [Dansyl-HDR-amide] (Dansyl-His-Asp-Arg-NH2)
28 | 17 | CN(C)c1cccc2c(S(=O)(=O)N[C@@H](Cc3c[nH]cn3)C(=O)N[C@@H](CCC(=O)O)C(=O)N[C@@H](CCCNC(=N)N)C(N)=O)cccc12 [Dansyl-HER-amide] (Dansyl-His-Glu-Arg-NH2)
29 | 15 | CN(C)c1cccc2c(S(=O)(=O)N[C@@H](Cc3cnc[nH]3)C(=O)N[C@@H](Cc3ccccc3)C(=O)N[C@@H](CCCNC(=N)N)C(N)=O)cccc12 [Dansyl-HFR-amide] (Dansyl-His-Phe-Arg-NH2)
30 | 22 | CN(C)c1cccc2c(S(=O)(=O)N[C@@H](Cc3c[nH]cn3)C(=O)NCC(=O)N[C@@H](CCCNC(=N)N)C(N)=O)cccc12 [Dansyl-HGR-amide] (Dansyl-His-Gly-Arg-NH2)
31 | 11 | CN(C)c1cccc2c(S(=O)(=O)N[C@@H](Cc3c[nH]cn3)C(=O)N[C@@H](Cc3c[nH]cn3)C(=O)N[C@@H](CCCNC(=N)N)C(N)=O)cccc12 [Dansyl-HHR-amide] (Dansyl-His-His-Arg-NH2)
32 | 23 | CC[C@H](C)[C@H](NC(=O)[C@H](Cc1c[nH]cn1)NS(=O)(=O)c1cccc2c(N(C)C)cccc12)C(=O)N[C@@H](CCCNC(=N)N)C(N)=O [Dansyl-HIR-amide] (Dansyl-His-Ile-Arg-NH2)
33 | 14 | CN(C)c1cccc2c(S(=O)(=O)N[C@@H](Cc3cnc[nH]3)C(=O)N[C@@H](CCCCN)C(=O)N[C@@H](CCCNC(=N)N)C(N)=O)cccc12 [Dansyl-HKR-amide] (Dansyl-His-Lys-Arg-NH2)
34 | 8 | CC(C)C[C@H](NC(=O)[C@H](Cc1cnc[nH]1)NS(=O)(=O)c1cccc2c(N(C)C)cccc12)C(=O)N[C@@H](CCCNC(=N)N)C(N)=O [Dansyl-HLR-amide] (Dansyl-His-Leu-Arg-NH2)
35 | 17 | CSCC[C@H](NC(=O)[C@H](Cc1cnc[nH]1)NS(=O)(=O)c1cccc2c(N(C)C)cccc12)C(=O)N[C@@H](CCCNC(=N)N)C(N)=O [Dansyl-HMR-amide] (Dansyl-His-Met-Arg-NH2)
36 | 18 | CN(C)c1cccc2c(S(=O)(=O)N[C@@H](Cc3c[nH]cn3)C(=O)N[C@@H](CC(N)=O)C(=O)N[C@@H](CCCNC(=N)N)C(N)=O)cccc12 [Dansyl-HNR-amide] (Dansyl-His-Asn-Arg-NH2)
